Our source for the IC50 values is patent US20260184707A1, “PHARMACEUTICAL COMPOUNDS FOR THE TREATMENT OF COMPLEMENT MEDIATED DISORDERS” (ALEXION PHARMACEUTICALS, INC., priority 2022, published 2026).

Molecules are shown by their SMILES. pIC50: −log10 of the molar value.

For this assay, the target named is T1, Human complement C1s enzyme (Homo sapiens, UniProt P09871).
T1 construct: purified from human serum, Complement Technology, Inc; purchased Complement Technology, Inc; host or cells: human serum (plasma-derived native protein)
T1 sequence (P09871 438-688 limits assumed): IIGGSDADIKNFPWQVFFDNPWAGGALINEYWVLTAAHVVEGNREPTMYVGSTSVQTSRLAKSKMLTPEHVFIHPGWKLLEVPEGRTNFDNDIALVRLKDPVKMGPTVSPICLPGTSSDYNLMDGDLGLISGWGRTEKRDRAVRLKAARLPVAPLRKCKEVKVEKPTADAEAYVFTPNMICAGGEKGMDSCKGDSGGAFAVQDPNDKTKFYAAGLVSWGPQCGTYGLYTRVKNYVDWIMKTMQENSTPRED
T1 sequence (P09871 16-437 partner limits assumed): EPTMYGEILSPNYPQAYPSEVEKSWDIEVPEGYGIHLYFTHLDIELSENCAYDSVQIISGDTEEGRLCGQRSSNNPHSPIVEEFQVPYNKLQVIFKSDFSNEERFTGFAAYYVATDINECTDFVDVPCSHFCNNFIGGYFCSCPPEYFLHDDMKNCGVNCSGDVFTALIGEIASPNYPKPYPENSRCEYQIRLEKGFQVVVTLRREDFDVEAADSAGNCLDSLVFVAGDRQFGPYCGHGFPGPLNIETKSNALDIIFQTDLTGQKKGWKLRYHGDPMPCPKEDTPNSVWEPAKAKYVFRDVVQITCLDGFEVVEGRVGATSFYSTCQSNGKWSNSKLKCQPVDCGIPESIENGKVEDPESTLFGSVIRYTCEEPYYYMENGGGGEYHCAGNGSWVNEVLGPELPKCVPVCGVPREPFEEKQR
Nature of the assay: Human C1s enzyme assay. Format: biochemical. The settings on record: human complement C1s enzyme 1.16 nM, substrate Z-L-Lys-SBzl, A405; read-out: IC50 (Stars). In short, it runs like this:
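Thioesterase activity followed colorimetrically (DTNB, A405, 30-s reads) using 100 μM Z-L-Lys-SBzl substrate. Enzyme, human serum-derived C1s at 1.16 nM final, was incubated with test compound for 5 min, room temperature, pH 7.5 Tris buffer with 1 M NaCl. Rate-versus-concentration data fitted by nonlinear regression for IC50.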

The term pIC50 denotes the IC50 on a negative log10 scale, so that one unit is a factor of ten. For the molecule `O=C(Cn1cncc(NC(=O)c2csc(-c3ccccc3)n2)c1=O)NCc1cc2cnccc2[nH]1` [Compound 393, N-(1-(2-(((1H-pyrrolo[3,2-c]pyridin-2-yl)methyl)amino)-2-oxoethyl)-6-oxo-1,6-dihydro-pyrimidin-5-yl)-2-phenyl-thiazole-4-carboxamide], the negative logarithm of the IC50 (pIC50) was 6.00 to 7.00.

Take `C[C@@H](Nc1cnc(N2CCCC2)n(CC(=O)NCc2cc3cnccc3[nH]2)c1=O)c1coc(-c2ccccc2)n1` [Compound 481, (R)-N-((1H-pyrrolo[3,2-c]pyridin-2-yl)methyl)-2-(6-oxo-5-((1-(2-phenyloxazol-4-yl)-ethyl)amino)-2-(pyrrolidin-1-yl)pyrimidin-1(6H)-yl)acet-mide]: the negative logarithm of the IC50 (pIC50) is 6.00 to 7.00. For `O=C(Cn1c(-c2ccccc2)ncc(NCCCCc2ccc(Oc3ccccc3)cc2)c1=O)NCc1cc2cnccc2[nH]1` [Compound 21, N-((1H-pyrrolo[3,2-c]pyridin-2-yl)methyl)-2-(6-oxo-5-((4-(4-phenoxyphenyl)butyl)amino)-2-phenylpyrimidin-1(6H)-yl)acetamide], the pIC50 was above 7.00. `O=C(Cn1c(-c2ccccc2F)cnc(N[C@H](CF)c2ccc3oc4ccccc4c3c2)c1=O)NCc1cc2cnccc2[nH]1` [Compound 443, (S)-N-((1H-pyrrolo[3,2-c]pyridin-2-yl)methyl)-2-(3-((1-(dibenzo[b,d]furan-2-yl)-2-fluoroethyl)amino)-6-(2-fluorophenyl)-2-oxopyrazin-1(2H)-yl)acetamide]: the negative-log IC50 (pIC50) is above 7.00.

In the case of `O=C(NCCOc1nc(-c2ccccc2)ncc1NCc1ccc2oc3ccccc3c2c1)c1cc2cnccc2[nH]1` [Compound 266, N-(2-((5-((dibenzo[b,d]furan-2-ylmethyl)amino)-2-phenyl-pyrimidin-4-yl)oxy)ethyl)-1H-pyrrolo[3,2-c]pyridine-2-carboxamide], the pIC50 was below 6.00.

Regarding `C[C@@H](Nc1cnc(-c2ccc(S(C)(=O)=O)cc2)n(CC(=O)NCc2cc3cnccc3[nH]2)c1=O)c1ccc2oc3ccccc3c2c1` [Compound 230, (R)-N-((1H-pyrrolo[3,2-c]pyr-idin-2-yl)methyl)-2-(5-((1-(dibenzo[b,d]furan-2-yl)ethyl)-amino)-2-(4-(methylsulfonyl)-phenyl)-6-oxopyrimidin-1(6H)-yl)acetamide], the pIC50 is above 7.00. As for `O=C(Cn1c(-c2ccccc2)ncc(NC(=O)c2ccc(-c3ccccc3)c(F)c2)c1=O)NCc1cc2cnccc2[nH]1` [Compound 240, N-(1-(2-(((1H-pyrrolo[3,2-c]pyridin-2-yl)methyl)amino)-2-oxoethyl)-6-oxo-2-phenyl-1,6-dihydropyrimidin-5-yl)-2-fluoro-[1,1′-biphenyl]-4-carboxamide], the pIC50 is above 7.00. As for `O=C(Cn1c(-c2ccccc2)ncc(NC(=O)OCc2ccccc2)c1=O)NCc1cc2cnccc2[nH]1` [Compound 31, benzyl (1-(2-(((1H-pyrrolo[3,2-c]pyridin-2-yl)methyl)amino)-2-oxoethyl)-6-oxo-2-phenyl-1,6-dihydropyrimidin-5-yl)-carbamate], the pIC50 was below 6.00.

Regarding `O=C(Cn1c(-c2ccc(N3CCOCC3)cc2)ncc(NCc2ccc3oc4ccccc4c3c2)c1=O)NCc1cc2cnccc2[nH]1` [Compound 216, N-((1H-pyrrolo[3,2-c]pyridin-2-yl)methyl)-2-(5-((dibenzo [b,d]furan-2-ylmethyl)amino)-2-(4-morpholinophenyl)-6-oxo-pyrimidin-1(6H)-yl)acetamide], the negative logarithm of the IC50 (pIC50) is above 7.00. As to `O=C(Cn1c(-c2ccccc2)ncc(NCCCc2ccccc2)c1=O)N[C@@H](CO)c1cc2cnccc2[nH]1` [Compound 16, (R)-N-(2-hydroxy-1-(1H-pyr-rolo[3,2-c]pyridin-2-yl)ethyl)-2-(6-oxo-2-phenyl-5-((3-phen-ylpropyl)amino)pyrimidin-1(6H)-yl)acetamide], the negative-log IC50 (pIC50) was below 6.00. As to `O=C(Cn1c(-c2ccccc2)ncc(NCc2ccc3c(c2)C(F)(F)c2ccccc2-3)c1=O)NCc1cc2cnccc2[nH]1` [Compound 112, N-((1H-pyrrolo[3,2-c]pyridin-2-yl)methyl)-2-(5-(((9,9-difluoro-9H-fluoren-2-yl)meth-yl)amino)-6-oxo-2-phenyl-pyrimidin-1(6H)-yl)acetamide], the negative logarithm of the IC50 (pIC50) is above 7.00. To `O=C(Cn1c(-c2ccc(O[C@@H]3CO[C@H]4[C@@H]3OC[C@H]4O)cc2)ncc(NCCCc2ccccc2)c1=O)NCc1cc2cnccc2[nH]1` [Compound 125, N-((1H-pyrrolo[3,2-c]pyridine-2-yl)methyl)-2-(2-(4-(((3R,3aR,6R,6aR)-6-hydroxyhexahydrofuro[3,2-b]furan-3-yl)oxy)phenyl)-6-oxo-5-((3-phenylpropyl)amino)pyrimidin-1(6H)-yl)acetamide] belongs above 7.00; to `C[C@@H](Nc1cnc(-c2ccccc2F)n([C@@H](C)C(=O)NCc2cc3cnccc3[nH]2)c1=O)c1ccc2oc3ccccc3c2c1` (single isomer, unassigned) [Compound 363, (S*)—N-((1H-pyrrolo[3,2-c]pyridine-2-yl)methyl)-2-(5-(((R)-1-(dibenzo[b,d]furan-2-yl)ethyl)amino)-2-(2-fluorophenyl)-6-oxopyrimidin-1(6H)-yl)propenamide], below 6.00. To `O=C(Cn1c(C2CC2)ncc(NCc2ccc3oc4ccccc4c3c2)c1=O)NCc1cc2cnccc2[nH]1` [Compound 330, N-((1H-pyrrolo[3,2-c]pyridin-2-yl)methyl)-2-(2-cyclopropyl-5-((dibenzo[b,d]furan-2-yl-methyl)amino)-6-oxopyrimi-din-1(6H)-yl)acetamide] belongs above 7.00; to `COCc1ncc(N[C@H](C)c2ccc3oc4ccccc4c3c2)c(=O)n1CC(=O)NCc1cc2cnccc2[nH]1` [Compound 365, (R)—N-((1H-pyrrolo[3,2-c]pyridine-2-yl)methyl)-2-(5-((1-(dibenzo[b,d]furan-2-yl)ethyl)amino)-2-(methoxymethyl)-6-oxopyrimidin-1(6H)-yl)acetamide], 6.00 to 7.00; to `O=C(Cn1c(-c2ccccc2)ncc(NC(=O)c2ccc(-c3ccccc3)s2)c1=O)NCc1ccc(Cl)s1` [Compound 278, N-(1-(2-(((5-chlorothiophen-2-yl)methyl)amino)-2-oxoethyl)-6-oxo-2-phenyl-1,6-dihydro-pyrimidin-5-yl)-5-phenylthio-phene-2-carboxamide], below 6.00.

With `O=C(Cn1c(-c2ccccc2)ncc(NCCNC(=O)c2ccc3oc4ccccc4c3c2)c1=O)NCc1cc2cnccc2[nH]1` [Compound 35, N-(2-((1-(2-(((1H-pyrrolo[3,2-c]pyridin-2-yl)methyl)amino)-2-oxoethyl)-6-oxo-2-phenyl-1,6-dihydropyrimidin-5-yl)amino)ethyl)dibenzo[b,d]furan-2-carboxamide], the negative-log IC50 (pIC50) is above 7.00. `O=C(Cn1c(-c2ccccc2)ncc(NC(=O)c2ccc(-c3ccsc3)cc2)c1=O)NCc1cc2cnccc2[nH]1` [Compound 75, N-(1-(2-(((1H-pyrrolo[3,2-c]pyridin-2-yl)methyl)amino)-2-oxoethyl)-6-oxo-2-phenyl-1,6-dihydropyrimidin-5-yl)-4-(thiophen-3-yl)benzamide]: the pIC50 is above 7.00. On to `C[C@H](Nc1ncc(-c2ccccc2)n(CC(=O)NCc2cc3cnccc3[nH]2)c1=O)c1ccc2oc3ccccc3c2c1` [Compound 282, (S)—N-((1H-pyrrolo[3,2-c]pyridine-2-yl)methyl)-2-(3-((1-(dibenzo[b,d]furan-2-yl)ethyl)amino)-2-oxo-6-phenylpyrazin-1(2H)-yl)acetamide], for which the pIC50 is above 7.00. With `O=C(Cn1c(-c2ccccc2)ncc(NCc2nnc(-c3ccccc3)s2)c1=O)NCc1cc2cnccc2[nH]1` [Compound 454, N-((1H-pyrrolo[3,2-c]pyridin-2-yl)methyl)-2-(6-oxo-2-phen-yl-5-(((5-phenyl-1,3,4-thiadia-zol-2-yl)methyl)amino)pyr-imidin-1(6H)-yl)acetamide], the pIC50 is above 7.00.

Regarding `Cc1ncc(-c2ncc(N[C@H](C)c3ccc4oc5ccccc5c4c3)c(=O)n2CC(=O)NCc2cc3cnccc3[nH]2)cn1` [Compound 391, (R)-N-((1H-pyrrolo[3,2-c]pyridin-2-yl)methyl)-2-(5-((1-(dibenzo[b,d]furan-2-yl)ethyl)-amino)-2′-methyl-6-oxo-[2,5′-bipyrimidin]-1(6H)-yl)acet-amide], the pIC50 is 6.00 to 7.00. For `O=C(Cn1c(-c2ccccc2)ncc(NC(=O)c2ccc(-c3ccccc3)s2)c1=O)NCc1cc2cnccc2[nH]1` [Compound 110, N-(1-(2-(((1H-pyrrolo[3,2-c]pyridin-2-yl)methyl)amino)-2-oxoethyl)-6-oxo-2-phenyl-1,6-dihydropyrimidin-5-yl)-5-phenylthiophene-2-carbox-amide], the negative logarithm of the IC50 (pIC50) was above 7.00. To `C[C@@H](Nc1cnc(-c2ccccc2)n(CC(=O)NCc2cc(Cl)ccc2-n2cnnn2)c1=O)c1ccc2oc3ccccc3c2c1` [Compound 425, (R)-N-(5-chloro-2-(1H-tetra-zol-1-yl)benzyl)-2-(5-((1-(dibenzo[b,d]furan-2-yl)ethyl)-amino)-6-oxo-2-phenylpyrimi-din-1(6H)-yl)acetamide] belongs below 6.00.
